How the values were obtained:
Assay in all cases: Seed germination and seedling shoot/root growth test in petridishes
Format in all cases: in vivo
[1] = tested on: Triticum aestivum; details: control = 100%
Method: (§1) As noted above the activity of phyllocladane diterpenoids used in the practice of this invention was observed when these compounds were tested for their effects on seed germination, root and shoot growth of certain plant species and their antagonistic effect on plant growth retardants by the method described by Bagchi G. D. et al Phytochemistry, 45(6)1131-1133, 1997.
(§2) Plant growth promoting activity of calliterpenone, calliterpenone monoacetate, and calliterpenone di-acetate was examined at 0.1, 0.01 and 0.001 μM concentrations. The tests were conducted against seeds of two monocotyledonous (Hordeum vulgare and Triticum aestivum) and two dicotyledonous plants (Vigna radiata and Trigonella foenum-graecum). Control seeds were germinated in distilled water and all the observations were compared with […]. The root and shoot growth of all the plant species were affected by the phyllocladane diterpenoids, although the extent of effect varied considerably in the plant species with the chemicals and their concentrations. […] Details of the procedure adopted and results obtained are discussed in the various examples.
(§3) 100 ml stalk solutions of 0.1 μM concentration were prepared by dissolving required amounts of various test compounds (depending upon their molecular weights) in minimum amount of ethanol or acetone and adding distilled water. From this stalk solution, 0.01 μM and 0.001 μM concentrations were prepared. Calliterpenone and calliterpenone di acetate was dissolved in 2.0 ml absolute ethanol (Merc), while; calliterpenone monoacetate, isopropylideno calliterpenone and trihydroxy calliterpenone were dissolved in 2.0 ml spectral grade acetone (Ranbaxy). The respective control test solutions of distilled water of each concentration also contained equal amount of absolute ethanol or acetone. For an assay, 10 seeds were placed on Whatman filter paper (moistened with 5.0 ml of test solution in a 9.0 cm diameter petridish (in triplicate). The pteridishes were incubated for 9 days in a germinator, maintained at 25.0±1.0° C. with 90% humidity and 4 hr light/day. At the end of incubation, observations were recorded on the seedlings in terms of germination, shoot and root growth. The data on the length of shoot and root of seedlings and number of seeds germinated in different concentrations of compounds were compared with the control, which was taken as 100%. The data thus obtained were presented in Table-1.
(§4) Root growth of seedlings was measured in the similar way as shoot growth from the experiment as described in Example 1.
(§5) Effect of test compounds on germination was observed from the same experiment as described in Example 1.

[2] = tested on: Vigna radiata; details: Vigna radiata, control = 100%
Method: as §1, §2, §3, §4, §5

[3] = tested on: Trigonella foenum-graecum; details: Trigonella foenum graecum, control = 100%
Method: as §1, §2, §3, §4, §5

[4] = tested on: Hordeum vulgare; details: control = 100%
Method: as §1, §2, §3, §4, §5

CC(=O)OCC1(OC(C)=O)CC23CCC4C(C)(C)C(=O)CCC4(C)C2CCC1C3 (centres unmarked) [Calliterpenone Diacetate, calliterpenone diacetate]
Percent (%) germination of seeds in relation to control on 9th day after sowing ([1]; 0.001 μM): 100% | Percent (%) root growth of seedlings in relation to control on 9th day after sowing ([1]; 0.001 μM): 125% | Percent (%) shoot growth of seedlings in relation to control on 9th day after sowing ([1]; 0.001 μM): 109% | Percent (%) germination of seeds in relation to control on 9th day after sowing ([1]; 0.01 μM): 100% | Percent (%) root growth of seedlings in relation to control on 9th day after sowing ([1]; 0.01 μM): 114% | Percent (%) shoot growth of seedlings in relation to control on 9th day after sowing ([1]; 0.01 μM): 106% | Percent (%) germination of seeds in relation to control on 9th day after sowing ([1]; 0.1 μM): 90% | Percent (%) root growth of seedlings in relation to control on 9th day after sowing ([1]; 0.1 μM): 103% | Percent (%) shoot growth of seedlings in relation to control on 9th day after sowing ([1]; 0.1 μM): 103% | Percent (%) germination of seeds in relation to control on 9th day after sowing ([2]; 0.001 μM): 200% | Percent (%) root growth of seedlings in relation to control on 9th day after sowing ([2]; 0.001 μM): 91% | Percent (%) shoot growth of seedlings in relation to control on 9th day after sowing ([2]; 0.001 μM): 111% | Percent (%) germination of seeds in relation to control on 9th day after sowing ([2]; 0.01 μM): 100% | Percent (%) root growth of seedlings in relation to control on 9th day after sowing ([2]; 0.01 μM): 136% | Percent (%) shoot growth of seedlings in relation to control on 9th day after sowing ([2]; 0.01 μM): 115% | Percent (%) germination of seeds in relation to control on 9th day after sowing ([2]; 0.1 μM): 100% | Percent (%) root growth of seedlings in relation to control on 9th day after sowing ([2]; 0.1 μM): 93% | Percent (%) shoot growth of seedlings in relation to control on 9th day after sowing ([2]; 0.1 μM): 119% | Percent (%) germination of seeds in relation to control on 9th day after sowing ([3]; 0.001 μM): 100% | Percent (%) root growth of seedlings in relation to control on 9th day after sowing ([3]; 0.001 μM): 73% | Percent (%) shoot growth of seedlings in relation to control on 9th day after sowing ([3]; 0.001 μM): 81% | Percent (%) root growth of seedlings in relation to control on 9th day after sowing ([3]; 0.001 μM, listed as Calliterpenone diacetate): 113% | Percent (%) germination of seeds in relation to control on 9th day after sowing ([3]; 0.01 μM): 100% | Percent (%) root growth of seedlings in relation to control on 9th day after sowing ([3]; 0.01 μM): 113% | Percent (%) shoot growth of seedlings in relation to control on 9th day after sowing ([3]; 0.01 μM): 121% | Percent (%) germination of seeds in relation to control on 9th day after sowing ([3]; 0.1 μM): 75% | Percent (%) root growth of seedlings in relation to control on 9th day after sowing ([3]; 0.1 μM): 95% | Percent (%) shoot growth of seedlings in relation to control on 9th day after sowing ([3]; 0.1 μM): 94% | Percent (%) germination of seeds in relation to control on 9th day after sowing ([4]; 0.001 μM): 100% | Percent (%) root growth of seedlings in relation to control on 9th day after sowing ([4]; 0.001 μM): 119% | Percent (%) shoot growth of seedlings in relation to control on 9th day after sowing ([4]; 0.001 μM): 108% | Percent (%) germination of seeds in relation to control on 9th day after sowing ([4]; 0.01 μM): 100% | Percent (%) root growth of seedlings in relation to control on 9th day after sowing ([4]; 0.01 μM): 113% | Percent (%) shoot growth of seedlings in relation to control on 9th day after sowing ([4]; 0.01 μM): 106% | Percent (%) root growth of seedlings in relation to control on 9th day after sowing ([4]; 0.01 μM, listed as Calliterpenone diacetate): 119% | Percent (%) germination of seeds in relation to control on 9th day after sowing ([4]; 0.1 μM): 100% | Percent (%) root growth of seedlings in relation to control on 9th day after sowing ([4]; 0.1 μM): 98% | Percent (%) shoot growth of seedlings in relation to control on 9th day after sowing ([4]; 0.1 μM): 105%
